From US6673839B1, “Pharmaceutical compositions with antitumour activity” (Universita' Degli Studi di Catania, priority 1998, dated 2004)
Where a name gives a salt, the structure may show the parent alone.

Assays:
[1] = system: multirecurrent urinary bladder neoplasia; assay: Patients with urinary bladder multirecurrent neoplasia treated orally; format: in vivo, human
Source text: 10 patients, 8 males and 2 females, of age from 55 to 75 years, all affected with multirecurrent urinary bladder neoplasia, at stages ranging from pT1G1NxMx and pT2G3NxMx, were orally treated with L-aC, at a standard dosage of 2 g/day, for a time from 10 to 12 months. They were then subjected to follow-up ranging from 6 to 22 months.
Before treatment with L-aC, patients had undergone an individual number of endoscopic resections (Turb), varying from 6 to 19 and in 1 case partial cystectomy with ureterocystoneostomy had been performed.
In all patients, treatment with L-aC started immediately after endoscopic resection.
Patients were subjected to quarterly endoscopic verification for the first year from the beginning of the treatment.
After 4 negative quarterly controls, the endoscopic control was performed every six months for a duration of 2 years.

[2] = system: cells from 4 primitive epidermoid carcinomas of the larynx and 1 primitive undifferentiated carcinoma of the nasopharynx; assay: In vitro short-term chemosensitivity assay (MTT), all five explants; format: cell-based, human
Protocol: (§1) The effects of L-aC on cells from 4 primitive epidermoid carcinomas of the larynx and 1 primitive undifferentiated carcinoma of the nasopharynx were tested.
(§2) Tissue fragments from the tumour mass were mechanically dissociated in Hank's solutions adding an antibiotic and an antifungal to obtain a cell monosuspension free of agglomerates. The resulting suspension was centrifuged at 1200 rpm for 5 minutes and the pellet was resuspended in MEM culture medium supplemented with 10% of patient serum, to obtain a concentration of 10^5 cells/ml. Subsequently, 180 μl of the resulting suspension were dispensed in microplate wells and incubated under 5% CO2 atmosphere at 37° C. for 3 days. After that, the antitumor medicaments were added in the amount of 20 μl for each well, at a concentration of 0.1×, 1× and 10× the maximum serum concentrations that can usually be reached in clinical practice. 24 h after the beginning of the exposure to the antitumour medicament, 100 μl of MTT were added, and after 4 h, a further 150 μl of dimethylsulfoxide were added.
(§3) The optical density was evaluated by a Uniscan microspectrophotometer with a […] wavelength filter. Cytotoxicity was evaluated as percentage of the optical density of the treated sample compared with the optical density of the control.
(§4) Bleomycin (BLEC), […] (CDDP), 5-fluoruracil (5-FU), vincristine (VCR), epidoxorubicin (Epi-Dx) and methotrexate (MTX) were tested for comparison purposes.
(§5) L-aC was tested at the following concentrations: 0.2-2-20 mg/ml.

Yoshida tumour = assay: Survived rats reinoculated with Yoshida tumour; format: in vivo, Sprague-Dowley rats
Protocol: 20 survivors rats previously transplanted with Yoshida tumour and subjected to the treatment on alternate days with 25 mg of L-aC diluted in 5 ml of saline solution […], were reinoculated with the tumour, at the end of the 6 week observation period.

[3] = system: Cells from Nasopharynx Carcinoma Explant; assay: In vitro short-term chemosensitivity assay (MTT); format: cell-based, human; conditions: Table 1, 24 h
Protocol: as §1, §2, §3, §4, §5
In vitro short-term chemosensitivity assay (according to Hill and coll.)
(Cell Vitality Percentage After Exposure to the Antitumoral)—Raw Data
(Cells from Nasopharynx Carcinoma Explant)

CC(=O)OC(CC(=O)[O-])C[N+](C)(C)C [L-aC, L-acetylcarnitine hydrochloride]
disease status at follow-up ([1]; 2 patients completed follow-up, 6 still under study): free from the disease
endoscopic control for tumour ([1]; 10 patients, oral 2 g/day 10 to 12 months after endoscopic resection, first and subsequent quarterly controls): all patients were negative for the tumour
hematochemical parameters and side effects during treatment ([1]; oral 2 g/day, 10 to 12 months): Neither significant changes in the hematochemical parameters nor side effects of any kind were observed
IC50 ([2]; Homo sapiens, read-out: IC 50 concentrations): 20 to 700 µg/mL
IC90 ([2]; Homo sapiens, read-out: IC 90 concentrations): 0.7 to 20 mg/mL
most active medicaments (cases out of 5) ([2]; five explants): 4/5
ascites after reinoculation (Yoshida tumour; 20 survivors (25 mg L-aC alternate days, 4 weeks), until day 14 after reinoculation): no animals showed ascites
outcome of repeated reinoculation (Yoshida tumour; second reinoculation): unsuccessfully
Cell Vitality Percentage After Exposure ([3]; 0.1x maximum clinical serum concentration (L-aC tested at 0.2-2-20 mg/ml)): 58%
Cell Vitality Percentage After Exposure ([3]; 1x maximum clinical serum concentration): 4.8%
Cell Vitality Percentage After Exposure ([3]; 10x maximum clinical serum concentration): 4%
